Series [1] concerns HeLa cells. In words: Cellular uptake efficiency by flow cytometry. The conditions noted are these: for Uptake (% rel.): relative to CPP9 (100%). The series is classed as cell-based. The protocol:
(§1) Cellular Uptake Efficiency: HeLa cells were seeded into 12-well cell-culture treated plates at a final density of 15×10^4 cells/well in DMEM supplemented with 10% FBS and 1% penicillin/streptomycin and incubated overnight at 37° ° C. and 5% CO2. After 24 h, the media was aspirated followed by washing the cells three times with warm DPBS. Peptides were diluted to a final concentration of 5 μM in DMEM containing 10% FBS with 1% penicillin/streptomycin, added to each well and then incubated for 2 h at 37° C. and 5% CO2. After 2 h, treatment media was aspirated and the cells were washed three times with ice-cold DPBS. Cells were removed from the plate via treatment with trypsin/EDTA and then harvested in ice-cold DPBS followed by centrifugation at ×300 RCF, 4° C. for 5 min. Cells were resuspended in DPBS and quantified using a BD Biosciences LSR II flow cytometer and gated using FlowJo. Values for uptake are provided as a percentage relative to positive control, CPP9 ([cyclo-fΦRrRrQ]-miniPEG-K[NF]).
as §1, with “Cellular Uptake. HeLa cells” for “Cellular Uptake Efficiency: HeLa cells”, “at 37° C. and” for “at 37° ° C. and”, “37° C. with 5% CO2.” for “37° C. and 5% CO2.”, “centrifugation at 300 g, 4° C.” for “centrifugation at ×300 RCF, 4° C.”, “control, CPP9 ([cyclo-fΦRrRrQ]-miniPEG-K[NF]), which has a 62% cytosolic entry efficiency. PGD97 entered HeLa cells at 60% efficiency relative to CPP9, corresponding to an absolute cytosolic entry efficiency of ˜36% (FIG. 9).” for “control, CPP9 ([cyclo-fΦRrRrQ]-miniPEG-K[NF]).”

Series [2] concerns the target T1, CAL PDZ domain (CALP5-His) (Homo sapiens, UniProt Q9HD26).
T1 construct: His
Description: FP/FA-based competition assay, Condition A (probe peptide 26). It is filed as binding. Conditions: Condition A (superscript a): 50 nM probe peptide 26, 100 nM CALP5-His, 2 mM TCEP. An excerpt: First, the C-terminal valine (position 0) was replaced with a variety of residues and evaluated for binding to CAL PDZ domain in silico.

A short description of series [3]: Preliminary tests of cellular activity. The conditions noted are these: 50 nM concentration. The series is classed as cell-based.
Series [4] has as its target T1, CAL PDZ domain (CALP5-His). In words: FP-based competition assay, Condition B (probe FAM-[…]-OH). It is filed as binding. The protocol: Serial dilutions of each competitor peptide were prepared in PBS and the incubation solution was added to each. The combined solutions were gently mixed for 1 h at RT after which 20 uL sample was pipetted into 384-well black-on-black microplates and fluorescence polarization was measured using a TECAN Infinite M1000 plate reader. Data was processed to determine IC50 using GraphPad PRISM ver. 6.0.

The subject of the next series is ΔF508CFTR-FAP. In words: ΔF508 CFTR membrane expression, FAP assay in HEK-293T cells. It is filed as cell-based. The protocol:
Effect on ΔF508 CFTR Membrane Expression. HEK-293T cells stably expressing ΔF508CFTR-FAP (Holleran et al. Mol. Med. 2012, 18, 685-696) were seeded into poly-L-lysine-coated white-wall, clear bottom 96-well plates (100,000 cells/well) in complete growth medium and incubated for 24 h at 27° ° C. or 37° C. and 5% CO2. After 24 h, media was aspirated from each well and washed twice with warm DPBS. Compound serial dilutions with or without 10 μM VX809 were added to each well in fresh penicillin/streptomycin-free media containing 10% FBS and incubated at 27° ° C. or 37° ° C. in 5% CO2 for 24 h. After 24 h, the media was aspirated and each well was washed 3× with warm DPBS. 500 nM MG-B-Tau and 500 nM Hoechst 33342 was added in DPBS and MG-B-Tau fluorescence was immediately measured on a TECAN Infinite M1000 plate reader (excitation=640 nm, emission=680 nm, 10 nm bandwidth, 16 distinct points per well). After measurement, the plate was returned to the incubator at 37° C. for 1 h before quantifying Hoechst 33342 fluorescence on a TECAN Infinite M1000 plate reader (excitation=362 nm, emission=492 nm, 5 nm bandwidth, identical points per well as measured for MG-B-Tau). Cell-count normalized fluorescent intensity was determined by dividing the per-well MG-B-Tau intensity by Hoechst intensity and then plotted relative to untreated control using GraphPad PRISM ver. 7.0.

The subject of series [5] is CFBE cells. Description: Short-circuit current, Ussing chamber. The conditions noted are these: 100 nM with 10 μM VX661, relative to VX661 only control. It is filed as cell-based. The protocol: (§2) Effect on Ion Channel Activity. CFBE or patient-derived primary cells were seeded onto filter inserts and grown to confluence at 37° C. in complete growth medium containing 10% FBS and 1% penicillin/streptomycin. Once confluent, cells were gently washed with DPBS and 10 µM VX661 and/or 100 nM PGD97 were added in complete growth medium supplemented with 10% FBS and 1% penicillin/streptomycin for 4 h or 24 h at 37° ° C. before measuring short circuit current using an Ussing chamber. PGD97 improved the ion channel activity by 33% and 37% relative to VX661 only controls after 4 and 24 h, respectively (FIGS. 12A and 12B).

For another series, the system named is LC3-II. In words: Autophagy in macrophages, western blotting for LC3-II. It is filed as cell-based, human. Conditions: 100 nM, 48 h, ΔF508 CFTR macrophages. The protocol: Effect on Autophagy in Macrophage. Human primary ΔF508 CFTR macrophages were incubated with 10 μM VX809 (n=1) or 100 nM PGD97 (n=2) for 48 h in complete growth medium supplemented with 10% FBS and 1% penicillin/streptomycin at 37° C. Induction of autophagy was determined via western blotting for autophagy-associated protein LC3-II.
For orientation: Immunoblotting shows a protein as a band on a membrane.

In series [6] the test system is patient-derived primary cells. Description: Short-circuit current, Ussing chamber. The series is classed as cell-based, human. Conditions: 100 nM with 10 μM VX661, 24 h. The protocol:
as §2

The test system of another series is HCT116 cell spheroids. Description: Intracellular stability by MALDI imaging. The series is classed as in vitro ADME. The conditions noted are these: after 4 or 24 h incubation with PGD97. The protocol:
Intracellular Stability. PGD97 ([…]) was added to HCT116 cell spheroids in RPMI-1640 medium supplemented with 10% FBS and 1% penicillin/streptomycin and incubated for 4 or 24 h. After incubation, spheroids were washed 3× with DPBS, quickly frozen, embedded in a solid support, and cryo-sectioned. Prior to analysis, sinapinic acid was sublimed onto individual slides. The sample was imaged using a Bruker ultrafleXtreme MALDI-TOF-TOF and analyzed for the presence of proteolytic degradation fragments. Heatmaps, scaled relative to the most intense signal, were generated for the intact peptide (both 29 and 32) as well as ˜20 potential proteolytic fragments at each time point. […] A degradation fragment (#1) corresponding to proteolytic cleavage between Thr and Arg (FIG. 8B) was observed, but none of the other potential degradation products were observed. […] Most importantly, significant concentrations of intact peptide 29 was still present inside the cells after 24 h.

The test system of the next series is H358 (lung cancer) cells. In words: Cytotoxicity, MTT assay. It is filed as cell-based. The conditions noted are these: 72 h, up to 50 μM. The protocol: (§3) Cytotoxicity. CFBE, HCT116 (colorectal cancer), or H358 (lung cancer) cells were seeded into a 96-well microplate (5000 cells per well) in full growth media and incubated at 37° C. overnight. A serial dilution of PGD97 was prepared in DPBS and then added to each well. The treated cells were incubated at 37° C. with 5% CO2 for 72 h. Following compound treatment, 10 μL of MTT stock solution was added to each well. After an additional 4 h at 37° C., 100 μL of SDS-HCl solubilizing solution was added to each well and the plate was returned to the incubator overnight at 37° C. A Tecan Infinite M1000 Pro microplate reader was used the following morning to measure the absorbance of the formazan product at 565 nm.

Series [7] has as its system CFBE cells. In words: Cytotoxicity, MTT assay. It is filed as cell-based. Conditions: 72 h, up to 50 μM. The protocol:
as §3
On the technique in general: Tetrazolium dyes change colour on reduction, which living cells bring about.

Series [8] relates to HCT116 (colorectal cancer) cells. Description: Cytotoxicity, MTT assay. The series is classed as cell-based. Conditions: 72 h, up to 50 μM. The protocol:
as §3

In series [9] the test system is HeLa cells. The conditions noted are these: positive control value; cited from earlier work.

pIC50: −log10 of the molar value. Where a SMILES comes first, the peptide text is derived from it. Bridges are numbered along the chain shown (N, C = ends). [ ]: non-standard residue; d: D form. 2Nal = N[C@@H](Cc1ccc2ccccc2c1)C(=O)O; Bta = N[C@@H](Cc1csc2ccccc12)C(=O)O; Pen = CC(C)(S)[C@H](N)C(=O)O; Tle = CC(C)(C)[C@H](N)C(=O)O; Pip = O=C(O)[C@@H]1CCCCN1

One may read the pIC50 as −log10 of the IC50, conventionally taken in molar units. Lower therefore signals a high IC50. On to `CC(=O)N[C@@H](CS)C(=O)N[C@@H](CCCNC(=N)N)C(=O)N[C@H](CCCNC(=N)N)C(=O)N[C@@H](CCCNC(=N)N)C(=O)N[C@@H](Cc1ccc2ccccc2c1)C(=O)N[C@@H](Cc1c[nH]c2ccccc12)C(=O)N[C@@H](CCC(N)=O)C(=O)N[C@H](C(=O)N[C@H](C(=O)N[C@@H](CCCNC(=N)N)C(=O)N[C@H](C(=O)O)C(C)(C)C)[C@@H](C)O)C(C)(C)S` [Compound 22, Ac-Cys-Arg-(D-Arg)-Arg-(2-Nal)-Trp-Gln-Pen-Thr-Arg-Tle-OH] (Ac-CR[dR]R[2Nal]WQ[Pen]TR[Tle]-OH), for which, in the series with HeLa cells [1] (HeLa cells, 5 μM, 2 h), the “Uptake (% rel.)” value was 17 ± 2%. This molecule also had a pIC50 in series [2] of 6.40.

The molecule `CC(=O)N[C@@H](CS)C(=O)N[C@H](CCCNC(=N)N)C(=O)N[C@@H](CCCNC(=N)N)C(=O)N[C@@H](CCCNC(=N)N)C(=O)N[C@@H](Cc1ccc2ccccc2c1)C(=O)N[C@@H](Cc1csc2ccccc12)C(=O)N[C@H](C(=O)N[C@H](C(=O)N[C@H](C(=O)N[C@@H](CCCNC(=N)N)C(=O)N[C@H](C(=O)O)C(C)(C)C)[C@@H](C)O)C(C)(C)C)C(C)(C)S` [Compound 25, Ac-Cys-(D-Arg)-Arg-Arg-(2-Nal)-(Bta)-Pen-Tle-Thr-Arg-Tle-OH] (Ac-C[dR]RR[2Nal][Bta][Pen][Tle]TR[Tle]-OH) gave an improvement in cell-permeability in the series on HeLa cells [1] (Bta for Trp at P-5, relative to peptide 24) of over 5 fold. The “Uptake (% rel.)” value in the series with HeLa cells [1] (HeLa cells, 5 μM, 2 h) is reported as 518 ± 74%. Also, the “cell-permeability, fold better” value was 5 fold in the series on HeLa cells [1] (relative to CPP9) and about 20 fold with HeLa cells [1] (relative to peptide 20). Besides, the cellular activity result in series [3] is “robust cellular activity”. For the same molecule, the pIC50 in [4] (Condition B (superscript b): 100 nM probe FAM-[…]-OH, 500 nM CALP5-His, 5 mM DTT) was 6.63. In addition, the “potency in CAL binding, fold more potent” value in series [4] (relative to peptide 24) is 1.5 fold.

With `CC(=O)N[C@H]1CSSC(C)(C)[C@@H](C(=O)N[C@H](C(=O)N[C@@H](CCCNC(=N)N)C(=O)N[C@H](C(=O)O)C(C)(C)C)[C@@H](C)O)NC(=O)[C@@H]2CCCCN2C(=O)[C@H](Cc2csc3ccccc23)NC(=O)[C@H](Cc2ccc3ccccc3c2)NC(=O)[C@H](CCCNC(=N)N)NC(=O)[C@H](CCCNC(=N)N)NC(=O)[C@@H](CCCNC(=N)N)NC1=O` [Compound 32, Ac-Cys*-(D-Arg)-Arg-Arg-Nal-Bta-Pip-Pen*-Thr-Arg-Tle-OH] (Ac-C[dR]RR[2Nal][Bta][Pip][Pen]TR[Tle]-OH; disulfide 1-8), the “cytosolic entry efficiency relative to CPP9” value with HeLa cells [1] (HeLa cells, 5 μM, 2 h) was 60%. Also, the “absolute cytosolic entry efficiency” value with HeLa cells [1] (HeLa cells, from relative efficiency and CPP9 value) is about 36%. Moreover, the “concentrations at which increased expression was observed” value in the series with ΔF508CFTR-FAP lay in the range of 10 to 1000 nM. For the same molecule, the “cell surface expression of ΔF508CFTR-FAP” value in the series on ΔF508CFTR-FAP (10 μM PGD97) is recorded as “reduced its surface expression”; in the series on ΔF508CFTR-FAP (PGD97 alone, 27° C., 24 h) it was “slightly increased”; in the series on ΔF508CFTR-FAP (in combination with 10 μM VX809, 27° C.), “further increase in cell surface expression”. For the same molecule, the “improvement of ion channel activity (short-circuit current)” value with CFBE cells [5] (after 4 h) is on record as 33%; in the series with CFBE cells [5] (after 24 h), 37%. Also, the LC3-II protein levels entry in the series on LC3-II was “increased the LC3-II protein levels to nearly WT level”. Further, the “ion channel activity (short-circuit current)” value in series [6] is “significantly increased the ion channel activity”. Besides, in the series with HCT116 cell spheroids, the “presence of intact peptide in spheroids” value is given as “not”. Besides, the cell viability entry (with H358 (lung cancer) cells; with CFBE cells [7]; in series [8]) was “did not significantly reduce the viability” throughout.

As for [cyclo-fΦRrRrQ]-miniPEG-K[NF] [CPP9], the cytosolic entry efficiency in the series on HeLa cells [9] is listed as 62%.

The values above are taken from US12496350B2 (Ohio State Innovation Foundation, priority 2018, dated 2025).
